Assay results as given in US8546421B1, “Oncogenic-RAS-signal dependent lethal compounds” (The Trustees of Columbia University in the City of New York, priority 2007, dated 2013).

Tests used:
[1] = system: A549, Calu-1, PaCa, and HCT116 cells; experiment: Alamar blue assay in KRAS-mutation-harboring cancer cells; assay type: cell-based, human
Experimental: A549, Calu-1, HCT116 and MIA PaCa-2 cell lines have an oncogenic mutation in the KRAS gene. Compounds which tested positive in the oncogenic HRAS primary screen were also tested for their selectivity against oncogenic KRAS which is more commonly mutated in human cancers.

HL-60(TB) = conditions: Leukemia
CCRF-CEM = experiment: NCI60 anti-cancer screening; conditions: for GI50 / CC50: Homo sapiens; for CC50: read-out: LC 50%; for GI 100%: Leukemia
HT29 = experiment: NCI60 anti-cancer screening; conditions: for GI 100%: HT29, Colon Cancer; for GI50 / CC50: Homo sapiens; for GI50: HT-29; for CC50: HT-29, read-out: LC 50%
786-0 = experiment: NCI60 anti-cancer screening; conditions: for GI 100% / GI50: 786-0; for GI 100%: Renal Cancer; for GI50 / CC50: Homo sapiens; for CC50: 786-0, read-out: LC 50%
A498 = experiment: NCI60 anti-cancer screening; conditions: for GI 100% / GI50: A498; for GI 100%: Renal Cancer; for GI50 / CC50: Homo sapiens; for CC50: A498, read-out: LC 50%
BT-549 = experiment: NCI60 anti-cancer screening; conditions: for GI 100% / GI50: BT-549; for GI 100%: Breast Cancer; for GI50 / CC50: Homo sapiens; for CC50: BT-549, read-out: LC 50%
[2] = system: BJ cell system (BJ-TERT, BJ-TERT/LT/ST, BJ-TERT/LT/ST/RAS^V12, DRD cells); experiment: Alamar blue potency and selectivity in the engineered BJ cell system; conditions: oncogenic-RAS-expressing vs non-oncogenic-RAS-expressing BJ cells; alamar blue
Experimental: Empty “step-daughter plates” were filled with 50 μL DMEM, except for columns 3 and 13, where 100 μL of hit compound solution were cherry-picked from daughter plates. After compound transfer, 2-fold dilution series across columns 3 through 12 and columns 13 through 22 was made by transferring 50 μL of compound solution to the next column successively (10-point dilution series), with extensive mixing. Hit-picking and 2-fold dilution series were carried out using Biomek FX Span-8 module (Beckman Coulter). Assay plates were prepared by seeding 1,000 BJ-TERT, BJ-TERT/LT/ST, and BJ-TERT/LT/ST/RAS^V12 cells per well in 36 μL growth medium. Cells in assay plates were treated with compounds from step-daughter plates by transferring 4 μL. The final concentration of the compound was 5.33 μg/mL to 0.01 μg/mL in this 10-point, 2-fold dilution series. Assay plates were returned to the culture incubator and maintained for 48 hours before adding alamar blue.
Fresh daughter plates were made from the mother plate and cherry-picked hits from the first round, 2-fold dilution series experiment as described above. Assay plates were prepared by seeding 1,000 BJ-TERT, BJ-TERT/LT/ST, BJ-TERT/LT/ST/RAS^V12 or BJ-TERT/p53DD/CDK4/cyclinD1/ST/RAS^V12 (DRD) cells per well in 32 μL growth media. Cells in the assay plates were treated with compounds from the step-daughter plate by transferring 8 μL solution. The final concentration of the compound was 10.66 μg/mL to 0.02 μg/mL in a 10-point, 2-fold dilution series manner. Assay plates were returned to the culture incubator and maintained for 48 hours before adding alamar blue.
Cells were seeded in 384-well assay plates, treated with candidate compounds, and incubated in the culture incubator in 40 μL culture volume per well. […] Plates were incubated further for 16 hours to allow reduction of alamar blue, which results in the generation of red fluorescence. The fluorescence intensity was determined using a Victor 3 plate reader (Perkin Elmer) with a 535 nm excitation filter and a 590 nm emission filter.
In the subsequent two-fold dilution series testing, selectivity was calculated as the ratio of GI50 values in BJ-TERT/LT/ST and BJ-TERT/LT/ST/RAS^V12 cells. […] DRD cells are also derived from BJ primary cells and the effects of mutations in both lines should be similar.

[3] = system: BJ-derived cell lines (BJ-TERT/LT/ST/RAS^V12 cells); experiment: Vi-Cell analysis (trypan blue exclusion); assay type: cell-based, human; conditions: 24 hours
Experimental: 200,000 cells were seeded in 6-well plates and treated with the indicated amount of 2-fold dilution series concentration of a candidate compound in 2 mL BJ growth medium. After 24 hours, cells were released with trypsin/EDTA, harvested in 1.1 mL growth medium, and transferred to a Vi-Cell (Beckman Coulter) disposable cup. After, trypan blue staining, 100 images of sample were taken and analysis of the images was carried out automatically by a Vi-Cell cell viability analyzer (Beckman Coulter).

OVCAR-3 = conditions: Ovarian Cancer
RPMI-8226 = experiment: NCI60 anti-cancer screening; conditions: for GI50 / CC50: Homo sapiens; for GI50 / GI 100%: RPMI-8226; for CC50: RPMI-8226, read-out: LC 50%; for GI 100%: Leukemia
NCI-H23 = experiment: NCI60 anti-cancer screening; conditions: for GI50 / CC50: Homo sapiens; for GI50 / GI 100%: NCI-H23; for CC50: NCI-H23, read-out: LC 50%; for GI 100%: Non-small cell lung carcinoma
NCI-H522 = experiment: NCI60 anti-cancer screening; conditions: for GI50 / CC50: Homo sapiens; for GI50 / GI 100%: NCI-H522; for CC50: NCI-H522, read-out: LC 50%; for GI 100%: Non-small cell lung carcinoma
KM12 = experiment: NCI60 anti-cancer screening; conditions: for GI50 / CC50: Homo sapiens; for GI50 / GI 100%: KM12; for CC50: KM12, read-out: LC 50%; for GI 100%: Colon Cancer
SF-539 = experiment: NCI60 anti-cancer screening; conditions: for GI50 / CC50: Homo sapiens; for GI50 / GI 100%: SF-539; for CC50: SF-539, read-out: LC 50%; for GI 100%: CNS Cancer
LOX IMVI = experiment: NCI60 anti-cancer screening; conditions: for GI50 / CC50: Homo sapiens; for CC50: read-out: LC 50%; for GI 100%: Melanoma
MALME-3M = experiment: NCI60 anti-cancer screening; conditions: for GI50 / CC50: Homo sapiens, Malme-3M; for CC50: read-out: LC 50%; for GI 100%: MALME-3M, Melanoma
M14 = experiment: NCI60 anti-cancer screening; conditions: for GI50 / CC50: Homo sapiens; for GI50 / GI 100%: M14; for CC50: M14, read-out: LC 50%; for GI 100%: Melanoma
SK-MEL-28 = experiment: NCI60 anti-cancer screening; conditions: for GI50 / CC50: Homo sapiens; for GI50 / GI 100%: SK-MEL-28; for CC50: SK-MEL-28, read-out: LC 50%; for GI 100%: Melanoma
SK-MEL-5 = experiment: NCI60 anti-cancer screening; conditions: for GI50 / CC50: Homo sapiens; for GI50 / GI 100%: SK-MEL-5; for CC50: SK-MEL-5, read-out: LC 50%; for GI 100%: Melanoma
UACC-257 = experiment: NCI60 anti-cancer screening; conditions: for GI50 / CC50: Homo sapiens; for GI50 / GI 100%: UACC-257; for CC50: UACC-257, read-out: LC 50%; for GI 100%: Melanoma
UACC-62 = experiment: NCI60 anti-cancer screening; conditions: for GI50 / CC50: Homo sapiens; for GI50 / GI 100%: UACC-62; for CC50: UACC-62, read-out: LC 50%; for GI 100%: Melanoma
OVCAR-8 = experiment: NCI60 anti-cancer screening; conditions: for GI50 / CC50: Homo sapiens; for GI50 / GI 100%: OVCAR-8; for CC50: OVCAR-8, read-out: LC 50%; for GI 100%: Ovarian Cancer
RXF393 = experiment: NCI60 anti-cancer screening; conditions: for GI50 / CC50: Homo sapiens; for GI50: RXF 393; for CC50: RXF 393, read-out: LC 50%; for GI 100%: RXF393, Renal Cancer
TK-10 = experiment: NCI60 anti-cancer screening; conditions: for GI50 / CC50: Homo sapiens; for GI50 / GI 100%: TK-10; for CC50: TK-10, read-out: LC 50%; for GI 100%: Renal Cancer
MDA-MB-231/ATCC = experiment: NCI60 anti-cancer screening; conditions: for GI50 / CC50: Homo sapiens; for GI50: MDA-MB-231; for CC50: MDA-MB-231, read-out: LC 50%; for GI 100%: MDA-MB-231/ATCC, Breast Cancer
MDA-MB-435 = experiment: NCI60 anti-cancer screening; conditions: for GI50 / CC50: Homo sapiens; for GI50 / GI 100%: MDA-MB-435; for CC50: MDA-MB-435, read-out: LC 50%; for GI 100%: Breast Cancer

## COCCOC(=O)C1=C(C)NC2=C(C(=O)CC(c3ccc(Cl)cc3)C2)C1c1ccccc1F (stereo not drawn) [Compound 3]
[1]
  activity in KRAS-mutation-harboring cancer cells (in words): less activity
HL-60(TB)
  GI 100%: >10 µM
CCRF-CEM
  GI50: 7.95 µM
  CC50: > 10 µM
  GI 100%: >10 µM
HT29
  GI 100%: >10 µM
  GI50: 9.82 µM
  CC50: > 10 µM
786-0
  GI 100%: >10 µM
  GI50: 9.27 µM
  CC50: > 10 µM
A498
  GI 100%: >10 µM
  GI50: 3.39 µM
  CC50: > 10 µM
BT-549
  GI 100%: >10 µM
  GI50: 4.28 µM
  CC50: > 10 µM
[2]
  degree of selectivity against HRAS^G12V: 4-8 fold

## CCc1c(O)c2c(c(O)c1O[C@H]1O[C@@H](COC(C)=O)[C@H](OC(C)=O)[C@@H](CC(C)=O)[C@@H]1OC(C)=O)C(=O)C(O[C@@H]1O[C@H](COC(C)=O)[C@@H](OC(C)=O)[C@H](OC(C)=O)[C@H]1OC(C)=O)=C(O[C@@H]1O[C@H](COC(C)=O)[C@@H](OC(C)=O)[C@H](OC(C)=O)[C@H]1OC(C)=O)C2=O [Compound 6]
[3]
  potency and selectivity by trypan blue exclusion (in words): confirmed the potency and selectivity
[1]
  activity in KRAS-mutation-harboring cancer cells (in words): reasonable potency
HL-60(TB)
  GI 100%: 2.38 µM
OVCAR-3
  GI 100%: >10 µM
CCRF-CEM
  GI50: 0.115 µM
  GI 100%: 0.422 µM
RPMI-8226
  GI50: 2.37 µM
  CC50: > 10 µM
  GI 100%: 6.77 µM
NCI-H23
  GI50: 4.17 µM
  CC50: > 10 µM
  GI 100%: >10 µM
NCI-H522
  GI50: 0.49 µM
  CC50: 5.12 µM
  GI 100%: 1.79 µM
HT29
  GI 100%: >10 µM
  GI50: 3.32 µM
  CC50: > 10 µM
KM12
  GI50: 5.2 µM
  CC50: > 10 µM
  GI 100%: >10 µM
SF-539
  GI50: 2.32 µM
  CC50: 9.59 µM
  GI 100%: 4.71 µM
LOX IMVI
  GI50: 1.73 µM
  CC50: 6.25 µM
  GI 100%: 3.29 µM
MALME-3M
  GI50: 0.261 µM
  CC50: 2.8 µM
  GI 100%: 0.723 µM
M14
  GI50: 2.07 µM
  CC50: 9.28 µM
  GI 100%: 4.38 µM
SK-MEL-28
  GI50: 1.46 µM
  CC50: 6.63 µM
  GI 100%: 3.11 µM
SK-MEL-5
  GI50: 5 µM
  CC50: > 10 µM
  GI 100%: >10 µM
UACC-257
  GI50: 2.78 µM
  CC50: > 10 µM
  GI 100%: >10 µM
UACC-62
  GI50: 9.78 µM
  CC50: > 10 µM
  GI 100%: >10 µM
OVCAR-8
  GI50: 4.22 µM
  CC50: > 10 µM
  GI 100%: >10 µM
786-0
  GI 100%: 5.54 µM
  GI50: 2.51 µM
  CC50: > 10 µM
RXF393
  GI50: 0.652 µM
  CC50: 6.6 µM
  GI 100%: 2.41 µM
TK-10
  GI50: 2.76 µM
  CC50: > 10 µM
  GI 100%: >10 µM
MDA-MB-231/ATCC
  GI50: 1.75 µM
  CC50: 9.52 µM
  GI 100%: 4.09 µM
MDA-MB-435
  GI50: 2.21 µM
  CC50: 9.07 µM
  GI 100%: 4.38 µM
BT-549
  GI 100%: 3.27 µM
  GI50: 1.49 µM
  CC50: 7.21 µM
[2]
  degree of selectivity against HRAS^G12V: 4-8 fold

## COC(=O)c1ccc(C2c3[nH]c4ccccc4c3CC(C(=O)OC)N2C(=O)CCl)cc1 (stereo not drawn) [Compound 27]
[3]
  potency and selectivity by trypan blue exclusion (in words): confirmed Compound 27 cell growth inhibition activity and selectivity
[1]
  activity in KRAS-mutation-harboring cancer cells (in words): active in all oncogenic-KRAS-harboring cancer cell lines tested
HL-60(TB)
  GI 100%: 0.537 µM
OVCAR-3
  GI 100%: 1.57 µM
CCRF-CEM
  GI50: 0.0195 µM
  CC50: 0.0953 µM
  GI 100%: 0.0431 µM
RPMI-8226
  GI50: 0.0431 µM
  CC50: 6.99 µM
  GI 100%: 2.22 µM
NCI-H23
  GI50: 1.15 µM
  CC50: 7.59 µM
  GI 100%: 2.95 µM
NCI-H522
  GI50: 1.63 µM
  CC50: 8.58 µM
  GI 100%: 3.74 µM
HT29
  GI 100%: 1.46 µM
  GI50: 0.415 µM
  CC50: 4.06 µM
KM12
  GI50: 0.188 µM
  CC50: 4.15 µM
  GI 100%: 1.19 µM
SF-539
  GI50: 0.118 µM
  CC50: 0.492 µM
  GI 100%: 0.241 µM
LOX IMVI
  GI50: 0.182 µM
  CC50: 0.826 µM
  GI 100%: 0.387 µM
MALME-3M
  GI50: 0.406 µM
  CC50: 4.6 µM
  GI 100%: 1.53 µM
M14
  GI50: 1.07 µM
  CC50: 4.75 µM
  GI 100%: 2.25 µM
SK-MEL-28
  GI50: 1.62 µM
  CC50: 6.76 µM
  GI 100%: 3.31 µM
SK-MEL-5
  GI50: 1.38 µM
  CC50: 5.16 µM
  GI 100%: 2.67 µM
UACC-257
  GI50: 1.37 µM
  CC50: > 10 µM
  GI 100%: 7.46 µM
UACC-62
  GI50: 1.21 µM
  CC50: 5.04 µM
  GI 100%: 2.47 µM
OVCAR-8
  GI50: 2.32 µM
  CC50: > 10 µM
  GI 100%: >10 µM
786-0
  GI 100%: 0.473 µM
  GI50: 0.0603 µM
  CC50: 2.52 µM
A498
  GI 100%: 4.52 µM
  GI50: 1.83 µM
  CC50: > 10 µM
RXF393
  GI50: 1.3 µM
  CC50: 6.93 µM
  GI 100%: 3 µM
TK-10
  GI50: 1.9 µM
  CC50: 8.25 µM
  GI 100%: 3.96 µM
MDA-MB-231/ATCC
  GI50: 1.2 µM
  CC50: 9.18 µM
  GI 100%: 3.32 µM
MDA-MB-435
  GI50: 1.71 µM
  CC50: 8.19 µM
  GI 100%: 3.74 µM
BT-549
  GI 100%: 0.316 µM
  GI50: 0.131 µM
  CC50: 0.765 µM
[2]
  degree of selectivity against HRAS^G12V: four-fold
